Reference: US20210154190A1, “SHP2 INHIBITOR COMPOSITIONS AND METHODS FOR TREATING CANCER” (Revolution Medicines, Inc., priority 2018, published 2021)

Biological target: T1, SHP2 T73I (Homo sapiens, UniProt Q06124, T73I)
T1 construct: expressed in transfected cells; host or cells: Flp-In T-REx-293 (T-REx-293-SHP2)
Experiment: EGF-induced pERK AlphaLISA in T-REx-293-SHP2 cells, T73I
Assay type: cell-based
Conditions: Variant T73I
Description: An experimental system was creating to test the activity of SHP2 mutants on an isogenic background (FIG. 6). The Flp-In T-REx-293 cell line was obtained from Gibco® and cultivated in high glucose DMEM™ containing 2 mM L-glutamine (Hyclone®), supplemented with 10% FBS (Hyclone®), 1% penicillin/streptomycin (Gibco®), 100 μg/mL Zeocin™ (Gibco®), and 15 μg/mL blasticidin (Gibco®) in a humidified cell culture incubator at 37° C., 5% CO2.
Wild type or mutant SHP2 variants were synthesized and subcloned into the pcDNA5/FRT/TO vector (ThermoFisher). Plasmids were co-transfected with the pOG44 Flp recombinase expression plasmid (ThermoFisher®) into Flp-In T-REx-293 cells using X-tremegene 9 DNA transfection reagent (Sigma®), according to the manufacturer's instructions. […]
For the final 5 minutes of drug treatment, cells were stimulated with 50 ng/mL Epidermal Growth Factor (Sigma®). […] Samples were read using an EnVision Multilabel Plate Reader (Perkin Elmer®) using standard AlphaLISA settings. Assay data was plotted and EC50 values were determined using four-parameter concentration-response model in GraphPad Prism 7. […]

With `Cc1nc(N2CCC3(CC2)CO[C@@H](C)[C@H]3N)c(CO)nc1-c1cccc(Cl)c1Cl` [Compound B] the Cellular sensitivity was “yes (Sensitive if IC50 < 2000 nM)”.
